In patent publication US20040096456A1, “Method to treat hemophilia” (priority 2003, published 2004):

Columns and labels:
[1] = test system: CD4^+ blood lymphocytes; experiment: 5 day proliferation assay of CD4+ blood lymphocytes with individual A3 and C2 peptides; type: cell-based, human; settings: for individual A3 peptides recognized by both patients (FIG. 4): hemophilia A patients with inhibitors # 5 and # 8, peptide 2 μg
Excerpt: Subiects. Six HIV negative severe hemophilia A patients (3 with inhibitors and 3 without), 4 acquired hemophilia patients (Table 4) and 6 healthy subjects (3 men and 3 women, 34-48 years old) were studied. The acquired hemophilia patients had not received fVIII during the period of time when we studied their CD4^+ response to the fVIII peptides. Among hemophilia A patients, patient #8 had received immune tolerance therapy with high doses of fVIII. The last high dose of fVIII administered as part of the immune tolerance therapy was given approximately 8 months before the first experiment reported here. […] Patient #9 received a prophylactic regimen of weekly injections of standard therapeutic doses of fVIII. All other patients were self treated on an as needed basis. In several hemophilic and healthy subjects we tested the response of CD4^+ blood lymphocytes to fVIII peptides on more than one occasion, at intervals that ranged from a few weeks to several months.
Peripheral blood mononuclear cells (PBMC) were isolated from venous blood and depleted them of CD8^+ T cells (Manfredi et al., 1993), using anti-human CD8 antibody (OKT8; Ortho Diagnostic Systems, Raritan, N.J. or Ancell, Bayport, Minn.) and paramagnetic beads coated with goat anti-mouse IgG antibody (PerSeptive Biosystems, Framingham, Mass.). The CD8^+ depleted PBMC (CD4^+ blood lymphocytes) were used for 5 day proliferation assays (Manfredi et al., […]), using sextuplet wells (2×10^5 cells/well; when cell yield was low, a minimum of 1×10^5 cells/well) and the following stimulants: phytohemagglutinin (Sigma; 10 μg/mL), T cell growth factor (Lymphocult; Biotest Diagnostic Corp., Danville, NJ; final concentration of interleukin 2, 10 U/mL), recombinant human fVIII (Baxter, Glendale, Calif. or Bayer, Elkhart, Ind.; 0.5-1 units/mL; normal plasma concentration: I unit/mL), and the synthetic fVIII peptides, both individually and in pools as described above (final concentration 2 μg/mL of each peptide). Sextuplet wells cultured without any stimulus provided the basal proliferation rate of the cells. We measured cell proliferation from the incorporation of ^3H-thymidine (1 μCi per well, specific activity 6.7 Ci/mmol; Dupont-NEN, Boston, Mass.), expressed as counts per minute (cpm). When an antigen induced a statistically significant (p<0.05) increase in proliferation (assessed using a two-tailed Student's t test), we calculated the stimulation index (SI: ratio between average cpm of cultures in the presence of the antigen and average basal proliferation of the same cells). The use of SI normalizes results, and allows comparison of experiments carried out at different times, and with different subjects.

[2] = test system: CD4^+ splenocytes; experiment: Proliferation assay of CD4+ splenocytes from hemophilia A mice exposed to human fVIII; type: cell-based, mouse; settings: for proliferative response, ^3H-thymidine incorporation (FIG. 2): CD4^+ splenocytes from hemophilia A mice immunized with human fVIII, representative experiment; for proliferative response of pooled CD4^+ splenocytes: hemophilia A mice immunized by multiple subcutaneous injections of 5-10 μg recombinant human fVIII in Freund's adjuvant, four independent groups
Description: Mice were treated up to 10 times intravenously with 1 μg of purified recombinant human fVIII. CD8^+ depleted spleen cells (so as to leave only CD4^+ T cells; hereafter referred to as “CD4^+ splenocytes”) were used in proliferation assays to test the response to increasing concentrations of fVIII (5-20 nM) and to pools of overlapping synthetic peptides, spanning the sequence of the individual the fVIII domains (fVIII domain pools). Also, the cytokines secreted by CD4^+ splenocytes, after challenge in vitro with fVIII, were determined. The anti-fVIII antibody was measured in the sera as well as their IgG subclass (by ELISA). The inhibitors were measured by the Bethesda assay (Kasper et al., 1975).
Epitope Repertoire on Human fVIII Recognized be CD4^+ Cells from Hemophilia A Mice. The epitope repertoire of the CD4^+ cells sensitized to human fVIII in hemophilia A mice was examined. Mice were immunized by multiple subcutaneous injections of 5-10 μg recombinant human fVIII, emulsified in Freund's adjuvant. This ensured a stronger sensitization of the CD4^+ cells than that obtained after intravenous administration of fVIII. The use of CD4+ splenocytes from mice strongly sensitized to fVIII increases the chances of identifying a comprehensive CD4^+ repertoire, because the CD4^+ cells recognizing individual epitopes on an antigen are scarce among unselected CD4^+ splenocytes.
Four independent groups of 2 to 4 hemophilia A mice were immunized. For each group their CD4^+ splenocytes were pooled, and tested for their proliferative response to fVIII, and to the individual synthetic peptides spanning the sequence of human fVIII. Because of the large number of peptides, all the peptides were tested only in one experiment. In two experiments, peptides spanning the A and C domains were tested. In a fourth experiment, only peptides spanning the Al domain were tested.

[3] = healthy subject #8, second experiment

CLIGEHLHAGMSTLFLVYSN (listed as Homo sapiens) [2001-2020]
A3 peptides that elicited the strongest response of CD4^+ lymphocytes ([1]; Hemophilia A without Inhibitors, Patient 9, t = 1): 2001-2020

GLIGPLLVCHTNTLNPAHGR (listed as Homo sapiens) [1851-1870]
proliferative response, ^3H-thymidine incorporation (FIG. 2) [2]: recognized

NENIHSIHFSGHVFTVRKKE (listed as Homo sapiens) [1951-1970]
individual A3 peptides recognized by both patients (FIG. 4) [1]: recognized also by patient # 8

YDEDENQSPRSFQKKTRHYF (listed as Homo sapiens) [1681-1700]
recognition by CD4^+ cells [1, 3]: recognized strongly

peptide 2131-2150: 20-residue synthetic peptide, residues 2131-2150 of the C1 domain of human fVIII (DSSGIKHNIFNPPIIARYIR; UniProt P00451 2150-2169, looked up, fragment)
proliferative response, ^3H-thymidine incorporation (FIG. 2) [2]: recognized
proliferative response of pooled CD4^+ splenocytes [2]: recognized clearly and consistently in all or most experiments

521-540: 20-residue synthetic peptide, residues 521-540 of the A2 domain of human fVIII (PTKSDPRCLTRYYSSFVNME; UniProt P00451 540-559, looked up, fragment)
proliferative response, ^3H-thymidine incorporation (FIG. 2) [2]: recognized

MESKAISDAQITASSYFTNM (listed as Homo sapiens) [2181-2200]
C2 peptides that elicited the strongest response of CD4^+ lymphocytes ([1]; Hemophilia A with Inhibitors, Patient 6, t = 1): 2181-2200

FATWSPSKARLHLQGRSNAW (listed as Homo sapiens) [peptide 2201-2220]
proliferative response, ^3H-thymidine incorporation (FIG. 2) [2]: recognized
proliferative response of pooled CD4^+ splenocytes [2]: recognized clearly and consistently in all or most experiments

2141-2160: 20-residue synthetic peptide, residues 2141-2160 of the C1 domain of human fVIII (NPPIIARYIRLHPTHYSIRS; UniProt P00451 2160-2179, looked up, fragment)
proliferative response of pooled CD4^+ splenocytes [2]: recognized clearly and consistently in all or most experiments

SFQKKTRHYFIAAVERLWDY (listed as Homo sapiens) [peptide 1691-1710]
experiments in which the peptide (or one or more peptides of the sequence region) was recognized ([1]; 8 experiments done with CD4^+ cells from healthy subjects): 7 of the 8
number of acquired hemophilia patients who recognized the peptide or region ([1]; acquired hemophilia patients, not consistent between experiments of the same patient): 1
recognition by CD4^+ cells ([1]; healthy subject #2): did not recognize
number of hemophilia A patients who strongly recognized the peptide ([1]; hemophilia A patients with inhibitors): 2
number of hemophilia A patients who strongly recognized the peptide ([1]; hemophilia A patients without inhibitors): 1
number of hemophilia A patients who strongly recognized the peptide ([1]; hemophilia A patients, in only one of the experiments of the same patient): 3
recognition by CD4^+ cells ([1]; patient #8, one experiment): recognized

peptide 71-90: 20-residue synthetic peptide, residues 71-90 of the A1 domain of human fVIII (LLGPTIQAEVYDTVVITLKN; UniProt P00451 90-109, looked up, fragment)
proliferative response of pooled CD4^+ splenocytes [2]: recognized clearly and consistently in all or most experiments

GMSSSPHVLRNRAQSGSVPQ (listed as Homo sapiens) [1711-1730]
recognition by CD4^+ cells ([1]; healthy subject #2): recognized

FTPVVNSLDPPLLTRYLRIH (listed as Homo sapiens) [2291-2310]
C2 peptides that elicited the strongest response of CD4^+ lymphocytes ([1]; Healthy Subjects, Subject 9, t = 1): 2291-2310

IAAVERLWDYGMSSSPHVLR (listed as Homo sapiens) [peptide 1701-1720]
recognition by CD4^+ cells [1, 3]: recognized strongly
recognition by CD4^+ cells ([1]; patient #2, another experiment): recognized
recognition by CD4^+ cells ([1]; patient #8, another experiment): recognized
proliferative response, ^3H-thymidine incorporation (FIG. 2) [2]: recognized
proliferative response of pooled CD4^+ splenocytes [2]: recognized clearly and consistently in all or most experiments

531-550: 20-residue synthetic peptide, residues 531-550 of the A2 domain of human fVIII (RYYSSFVNMERDLASGLIGP; UniProt P00451 550-569, looked up, fragment)
proliferative response, ^3H-thymidine incorporation (FIG. 2) [2]: recognized

VEMKKEDFDIYDEDENQSPR (listed as Homo sapiens) [1671-1690]
recognition by CD4^+ cells ([1]; patient #8, another experiment): recognized

AEPRKNFVKPNETKTYFWKV (listed as Homo sapiens) [1801-1820]
individual A3 peptides recognized by both patients (FIG. 4) [1]: recognized also by patient # 8

FDCKAWAYFSDVDLEKDVHS (listed as Homo sapiens) [1831-1850]
A3 peptides that elicited the strongest response of CD4^+ lymphocytes ([1]; Acquired Hemophilia, Patient 1, t = 2): 1831-1850
recognition by CD4^+ cells ([1]; patients #1 and #2 (acquired hemophilia), in some experiments): recognized

DLNSCSMPLGMESKAISDAQ (listed as Homo sapiens) [peptide 2171-2190]
recognition by CD4^+ cells ([1]; patient # 8, hemophilia A with inhibitors, C2 peptides): recognized

LHLQGRSNAWRPQVNNPKEW (listed as Homo sapiens) [2211-2230]
C2 peptides that elicited the strongest response of CD4^+ lymphocytes ([1]; Hemophilia A without Inhibitors, Patient 9, t = 2): 2211-2230

peptide 601-620: 20-residue synthetic peptide, residues 601-620 of the A2 domain of human fVIII (VQLEDPEFQASNIMHSINGY; UniProt P00451 620-639, looked up, fragment)
proliferative response, ^3H-thymidine incorporation (FIG. 2) [2]: recognized
proliferative response of pooled CD4^+ splenocytes [2]: recognized clearly and consistently in all or most experiments
